Experiment [1] has as its target T1, Serine/threonine-protein kinase 3 (Homo sapiens, UniProt Q13188).
T1 sequence (Q13188 whole entry): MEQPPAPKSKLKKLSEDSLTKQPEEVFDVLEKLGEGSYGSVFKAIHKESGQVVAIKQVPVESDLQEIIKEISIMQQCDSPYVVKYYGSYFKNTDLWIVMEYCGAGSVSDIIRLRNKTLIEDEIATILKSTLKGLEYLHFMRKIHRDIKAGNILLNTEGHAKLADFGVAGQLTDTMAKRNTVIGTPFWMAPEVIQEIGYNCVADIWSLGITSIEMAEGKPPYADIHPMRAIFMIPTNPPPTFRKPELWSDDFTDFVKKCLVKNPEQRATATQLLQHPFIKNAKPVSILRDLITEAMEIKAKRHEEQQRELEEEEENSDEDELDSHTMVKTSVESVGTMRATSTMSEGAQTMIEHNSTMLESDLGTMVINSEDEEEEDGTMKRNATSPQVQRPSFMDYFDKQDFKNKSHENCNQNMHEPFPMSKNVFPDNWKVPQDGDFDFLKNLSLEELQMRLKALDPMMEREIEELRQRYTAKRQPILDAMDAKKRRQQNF

The target in experiment [2] is T2, Serine/threonine-protein kinase TAO3 (Homo sapiens, UniProt Q9H2K8).
T2 sequence (Q9H2K8 whole entry): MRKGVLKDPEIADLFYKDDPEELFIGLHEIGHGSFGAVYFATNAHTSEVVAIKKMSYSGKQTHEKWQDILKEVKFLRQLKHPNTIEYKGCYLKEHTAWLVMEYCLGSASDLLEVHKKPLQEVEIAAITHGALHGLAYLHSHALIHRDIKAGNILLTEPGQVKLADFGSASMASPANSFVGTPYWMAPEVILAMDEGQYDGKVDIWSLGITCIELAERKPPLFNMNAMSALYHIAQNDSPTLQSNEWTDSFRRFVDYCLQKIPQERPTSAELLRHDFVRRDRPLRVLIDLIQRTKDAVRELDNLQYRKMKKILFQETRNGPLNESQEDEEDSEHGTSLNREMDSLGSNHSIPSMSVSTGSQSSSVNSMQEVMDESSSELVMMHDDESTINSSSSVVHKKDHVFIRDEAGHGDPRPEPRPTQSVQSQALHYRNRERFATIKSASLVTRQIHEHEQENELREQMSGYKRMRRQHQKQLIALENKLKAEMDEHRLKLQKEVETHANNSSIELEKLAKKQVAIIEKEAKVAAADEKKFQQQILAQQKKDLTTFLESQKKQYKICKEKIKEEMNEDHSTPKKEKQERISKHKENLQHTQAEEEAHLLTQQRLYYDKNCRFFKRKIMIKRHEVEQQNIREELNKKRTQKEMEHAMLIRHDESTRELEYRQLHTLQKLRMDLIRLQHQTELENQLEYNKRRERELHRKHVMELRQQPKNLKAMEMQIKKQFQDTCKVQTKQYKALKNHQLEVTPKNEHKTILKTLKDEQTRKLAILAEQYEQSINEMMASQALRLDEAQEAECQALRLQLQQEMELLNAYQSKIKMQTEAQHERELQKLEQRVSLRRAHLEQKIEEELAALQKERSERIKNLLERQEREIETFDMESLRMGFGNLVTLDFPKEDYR

The target in experiment [3] is T3, Very long-chain specific acyl-CoA dehydrogenase, mitochondrial (Homo sapiens, UniProt P49748).
T3 sequence (P49748 whole entry): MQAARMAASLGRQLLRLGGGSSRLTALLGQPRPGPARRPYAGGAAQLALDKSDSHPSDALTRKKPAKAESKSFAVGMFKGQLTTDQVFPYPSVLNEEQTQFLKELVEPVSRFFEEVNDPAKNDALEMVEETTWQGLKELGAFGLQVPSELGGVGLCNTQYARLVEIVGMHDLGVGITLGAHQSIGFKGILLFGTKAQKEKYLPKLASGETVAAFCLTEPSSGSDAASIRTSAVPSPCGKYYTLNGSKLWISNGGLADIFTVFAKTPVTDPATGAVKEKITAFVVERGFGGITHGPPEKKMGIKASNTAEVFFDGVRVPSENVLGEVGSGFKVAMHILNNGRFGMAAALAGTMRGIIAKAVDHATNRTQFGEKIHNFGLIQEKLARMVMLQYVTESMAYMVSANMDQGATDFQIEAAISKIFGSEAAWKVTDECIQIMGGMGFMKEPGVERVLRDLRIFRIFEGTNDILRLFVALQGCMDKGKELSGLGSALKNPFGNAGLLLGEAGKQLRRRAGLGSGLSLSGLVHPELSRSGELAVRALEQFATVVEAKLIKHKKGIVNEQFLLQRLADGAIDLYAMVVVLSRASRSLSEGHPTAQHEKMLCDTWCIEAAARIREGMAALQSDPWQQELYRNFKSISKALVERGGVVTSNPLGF

In experiment [4] the target is T4, TGF-beta receptor type-1 (Homo sapiens, UniProt P36897).
T4 sequence (P36897 whole entry): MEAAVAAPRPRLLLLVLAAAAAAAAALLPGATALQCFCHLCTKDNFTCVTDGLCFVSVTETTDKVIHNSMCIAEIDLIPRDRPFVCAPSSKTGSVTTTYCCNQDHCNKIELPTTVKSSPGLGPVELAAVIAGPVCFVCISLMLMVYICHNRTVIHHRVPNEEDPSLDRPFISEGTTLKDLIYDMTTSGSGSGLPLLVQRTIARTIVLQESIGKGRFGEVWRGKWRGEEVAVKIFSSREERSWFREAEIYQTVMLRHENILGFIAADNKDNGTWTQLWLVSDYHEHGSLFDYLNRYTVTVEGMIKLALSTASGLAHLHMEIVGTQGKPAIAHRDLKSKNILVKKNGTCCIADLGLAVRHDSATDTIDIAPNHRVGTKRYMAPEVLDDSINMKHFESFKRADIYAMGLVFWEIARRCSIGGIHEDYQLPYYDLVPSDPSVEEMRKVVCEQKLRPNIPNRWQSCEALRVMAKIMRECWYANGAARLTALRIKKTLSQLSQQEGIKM

Experiment [5] has as its target Serine/threonine-protein kinase 26 (Homo sapiens, UniProt Q9P289).

The source made the active and inactive calls. Rule as the data show it, for most assays here: actives have a measured Kd and inactives only a lower limit. Where only a bound is given, the exact number is not on record here.
Also: in the data inactive means no Kd found up to 30 µM.

Sequence of Serine/threonine-protein kinase 26 (Q9P289 whole entry): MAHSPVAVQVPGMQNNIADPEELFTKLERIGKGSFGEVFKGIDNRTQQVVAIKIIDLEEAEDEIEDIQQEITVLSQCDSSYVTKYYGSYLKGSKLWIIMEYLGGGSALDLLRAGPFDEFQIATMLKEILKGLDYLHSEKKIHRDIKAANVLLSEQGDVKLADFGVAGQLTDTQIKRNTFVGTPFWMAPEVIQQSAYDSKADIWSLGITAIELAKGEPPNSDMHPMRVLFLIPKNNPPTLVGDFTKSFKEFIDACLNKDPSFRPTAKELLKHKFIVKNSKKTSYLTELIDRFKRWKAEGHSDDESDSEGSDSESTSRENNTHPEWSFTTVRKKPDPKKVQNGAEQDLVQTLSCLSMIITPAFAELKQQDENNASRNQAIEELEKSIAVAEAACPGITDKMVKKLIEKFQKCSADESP

With `C[C@@H](Nc1cc(F)cc(F)c1)c1cc(C(=O)N(C)C)cc2c(=O)cc(N3CCOCC3)oc12` [AZD-8186], the Kd in experiment [1], in experiment [2], in experiment [3], in experiment [4] and in experiment [5] was > 30 µM (inactive) throughout.
As to `COc1cc(OC)c(/C=C/S(=O)(=O)Cc2ccc(OC)c(NCC(=O)O)c2)c(OC)c1` [RIGOSERTIB], the Kd in experiment [1], in experiment [2], in experiment [3], in experiment [4] and in experiment [5] was > 30 µM (inactive) each time.
Take `CC[C@H](Nc1ncnc2[nH]cnc12)c1nc2cccc(F)c2c(=O)n1-c1ccccc1` [IDELALISIB]: the Kd in experiment [1], in experiment [2], in experiment [3], in experiment [4] and in experiment [5] was > 30 µM (inactive) throughout.
For the molecule `C[C@@H](c1ccc2nccn2c1)n1nnc2ncc(-c3cnn(C)c3)nc21` [SAVOLITINIB], the Kd in experiment [1], in experiment [2], in experiment [3], in experiment [4] and in experiment [5] was > 30 µM (inactive) throughout.
As to `CN1N=C(N)c2cn([C@@H]3O[C@H](COP(=O)(O)O)[C@@H](O)[C@H]3O)c3ncnc1c23` [TRICIRIBINE PHOSPHATE], the Kd in experiment [1], in experiment [2], in experiment [3], in experiment [4] and in experiment [5] was > 30 µM (inactive) each time.
Regarding `CNC(=O)CN1CCC(Oc2cc3c(Nc4cccc(Cl)c4F)ncnc3cc2OC)CC1` [SAPITINIB], the Kd in experiment [1], in experiment [2], in experiment [3], in experiment [4] and in experiment [5] was > 30 µM (inactive) each time.
For `O=C(c1ccc(F)c(F)c1Nc1ccc(I)cc1F)N1CC(O)([C@@H]2CCCCN2)C1` [COBIMETINIB], the Kd in experiment [1], in experiment [2], in experiment [3], in experiment [4] and in experiment [5] was > 30 µM (inactive) in each case.
With `Cc1ccc(S(=O)(=O)Nc2nc3ccccc3nc2Nc2ccc3nsnc3c2)cc1`, the Kd in experiment [1], in experiment [2], in experiment [3], in experiment [4] and in experiment [5] was > 30 µM (inactive) in each case.
As to `CCS(=O)(=O)N1CC(CC#N)(n2cc(-c3ncnc4[nH]ccc34)cn2)C1` [BARICITINIB], the Kd in experiment [1], in experiment [2], in experiment [3], in experiment [4] and in experiment [5] was > 30 µM (inactive) in each case.
For `Cc1nc(N)sc1-c1ccnc(Nc2ccc(N3CCOCC3)cc2)n1` [CYC-116], the Kd (usually the free concentration of one partner at which half of the binding sites on the other are occupied at equilibrium, for simple one-to-one binding) in experiment [3] was > 30 µM (inactive); in experiment [5], 0.013 µM.
On to `Cc1cc(Nc2cc(N3CCN(C)CC3)nc(/C=C/c3ccccc3)n2)n[nH]1` [ENMD-2076], for which the Kd in experiment [3] and in experiment [4] was > 30 µM (inactive) throughout.
`Cc1ccc(NC(=O)c2ccc(CN3CC[C@H](N(C)C)C3)c(C(F)(F)F)c2)cc1Nc1nccc(-c2cncnc2)n1` [BAFETINIB]: the Kd in experiment [1], in experiment [2], in experiment [3], in experiment [4] and in experiment [5] was > 30 µM (inactive) in each case.
`O=C(Nc1cccc(Cl)c1)Nc1ncc(CCNc2ncnc3ccsc23)s1` [SNS-314]: the Kd in experiment [2], in experiment [3], in experiment [4] and in experiment [5] was > 30 µM (inactive) throughout.
With `Cc1ccc(-n2nc(C(C)(C)C)cc2NC(=O)NCc2cc(F)ccc2Oc2ccc3c(cnn3CCO)c2)cc1` [PEXMETINIB], the Kd in experiment [1], in experiment [2], in experiment [3], in experiment [4] and in experiment [5] was > 30 µM (inactive) throughout.
As to `Nc1nc(N)c2nc(-c3cccc(O)c3)c(-c3cccc(O)c3)nc2n1` [TG100-115], in experiment [3], the affinity, expressed as Kd, was 1.69 µM.
The same measure, in the same setting: as for `CN1CCN(c2ccc3nc(-c4c(N)c5c(F)cccc5[nH]c4=O)[nH]c3c2)CC1` [DOVITINIB], the figure is > 30 µM (inactive).
`CNS(=O)(=O)Nc1nccc(Cc2c(C)c3ccc(Oc4ncccn4)cc3oc2=O)c1F` [AVUTOMETINIB]: the Kd in experiment [1], in experiment [2], in experiment [3] and in experiment [4] was > 30 µM (inactive) throughout.
In the case of `COc1cc(CCc2cc(NC(=O)c3ccc(N4C[C@@H](C)N[C@@H](C)C4)cc3)n[nH]2)cc(OC)c1` [AZD-4547], the Kd in experiment [1], in experiment [2], in experiment [3] and in experiment [4] was > 30 µM (inactive) in each case.
As for `CCn1c(-c2nonc2N)nc2c(C#CC(C)(C)O)ncc(OC[C@H]3CCCNC3)c21` [GSK-690693], the Kd in experiment [3] is > 30 µM (inactive).
Regarding `CN1CCC(COc2cnc(-c3cccc(Cn4nc(-c5cccc(C#N)c5)ccc4=O)c3)nc2)CC1` [TEPOTINIB], the Kd in experiment [1], in experiment [2], in experiment [3] and in experiment [4] was > 30 µM (inactive) each time.
For `COc1cc2nccc(Oc3ccc(NC(=O)NC4CC4)c(Cl)c3)c2cc1C(N)=O` [LENVATINIB], the Kd in experiment [1], in experiment [2], in experiment [3] and in experiment [4] was > 30 µM (inactive) each time.
Consider `Cc1cn(-c2cc(NC(=O)c3ccc(C)c(Nc4nccc(-c5cccnc5)n4)c3)cc(C(F)(F)F)c2)cn1` [NILOTINIB], for which the Kd in experiment [3] was > 30 µM (inactive).

The record behind these values is ChEMBL document CHEMBL3991601, “The target landscape of clinical kinase drugs” (Science, 2017).
